Source: the CheMixHub drug solubility set

Test: xn = mol fraction of the nth substance listed, in the solute-free solvent

Nc1cccc2ccncc12 + CC(C)O + O
solubility (g/100 g solution)
Conditions	278.15 K	283.15 K	288.15 K	293.15 K	298.15 K	303.15 K	308.15 K	313.15 K	318.15 K	323.15 K
x2 = 0.03225	0.0706	0.0813	0.0925	0.109	0.123	0.142	0.165	0.191	0.218	0.252
x2 = 0.06974	0.141	0.163	0.184	0.215	0.244	0.279	0.323	0.372	0.424	0.489
x2 = 0.1139	0.235	0.271	0.306	0.357	0.405	0.463	0.534	0.617	0.702	0.808
x2 = 0.1666	0.339	0.393	0.445	0.519	0.59	0.676	0.78	0.902	1.03	1.18
x2 = 0.2307	0.393	0.466	0.559	0.658	0.767	0.883	1.02	1.18	1.36	1.58
x2 = 0.3103	0.5	0.587	0.696	0.819	0.952	1.09	1.26	1.47	1.68	1.95
x2 = 0.4117	0.573	0.687	0.826	0.98	1.13	1.3	1.5	1.75	2.02	2.35
x2 = 0.5454	0.633	0.765	0.915	1.08	1.25	1.46	1.7	1.97	2.3	2.69
x2 = 0.7297	0.576	0.73	0.906	1.1	1.31	1.58	1.84	2.16	2.51	2.94

CN1CCC(N(Cc2cccs2)c2ccccc2)CC1 + CN(C)C=O + O
solubility (g/100 g solution)
Conditions	278.15 K	283.15 K	288.15 K	293.15 K	298.15 K	303.15 K	308.15 K	313.15 K	318.15 K	323.15 K
x2 = 0.02666	0.234	0.248	0.263	0.283	0.308	0.336	0.367	0.396	0.432	0.473
x2 = 0.05806	0.678	0.715	0.75	0.8	0.862	0.931	1.01	1.08	1.16	1.26
x2 = 0.09556	1.25	1.32	1.38	1.47	1.58	1.7	1.83	1.95	2.11	2.27
x2 = 0.1412	1.74	1.84	1.95	2.07	2.23	2.4	2.59	2.76	2.98	3.21
x2 = 0.1978	2.05	2.19	2.34	2.51	2.71	2.93	3.16	3.38	3.65	3.96
x2 = 0.27	2.31	2.46	2.65	2.87	3.12	3.38	3.66	3.93	4.27	4.64
x2 = 0.3652	2.53	2.75	2.99	3.25	3.54	3.83	4.16	4.52	4.89	5.35
x2 = 0.4965	2.78	3.02	3.28	3.6	3.95	4.31	4.69	5.09	5.53	6.09
x2 = 0.6893	2.78	3.07	3.4	3.73	4.13	4.53	4.98	5.42	5.95	6.54

NCCS(=O)(=O)O + O + CC#N
solubility (g/100 g solution)
Conditions	298.15 K	303.15 K	308.15 K	313.15 K	318.15 K
x2 = 0.6949	0.528	0.562	0.597	0.644	0.864
x2 = 0.7736	1.15	1.28	1.37	1.54	1.75
x2 = 0.8417	2.09	2.47	2.66	2.99	3.69
x2 = 0.9011	3.76	4.25	4.87	6.01	7.16
x2 = 0.9535	6.1	7.22	8.46	9.89	11.6

CC(=O)Oc1cccc2c1C(=O)c1c(OC(C)=O)cc(C(=O)O)cc1C2=O + CCOC(C)=O + CCO
solubility (g/100 g solution)
Conditions	273.15 K	278.15 K	283.15 K	288.15 K	293.15 K	298.15 K	303.15 K	308.15 K	313.15 K
x2 = 0.05491	0.00668	0.0091	0.0121	0.016	0.0207	0.0262	0.0328	0.04	0.0477
x2 = 0.1156	0.00776	0.0107	0.0144	0.0188	0.0241	0.0303	0.0382	0.0464	0.0564
x2 = 0.1831	0.015	0.0183	0.022	0.0265	0.0324	0.0391	0.0465	0.0555	0.0662
x2 = 0.2585	0.0202	0.0259	0.0317	0.0381	0.045	0.0534	0.0632	0.0734	0.0846
x2 = 0.3434	0.0268	0.0331	0.0402	0.0487	0.0574	0.067	0.078	0.0898	0.103
x2 = 0.4396	0.033	0.0398	0.0471	0.0563	0.0659	0.0773	0.0893	0.103	0.118
x2 = 0.5496	0.0337	0.0411	0.0496	0.0593	0.0698	0.0813	0.0934	0.109	0.125
x2 = 0.6765	0.0349	0.0419	0.0506	0.0609	0.0723	0.0849	0.0975	0.112	0.127
x2 = 0.8247	0.0222	0.0276	0.0334	0.0401	0.048	0.0562	0.0655	0.0763	0.087

Nc1cccc2ccncc12 + CCO + O
solubility (g/100 g solution)
Conditions	278.15 K	283.15 K	288.15 K	293.15 K	298.15 K	303.15 K	308.15 K	313.15 K	318.15 K	323.15 K
x2 = 0.04165	0.0455	0.0527	0.0604	0.0712	0.0812	0.0941	0.11	0.128	0.147	0.171
x2 = 0.08908	0.0727	0.084	0.0965	0.113	0.129	0.149	0.174	0.202	0.233	0.271
x2 = 0.1436	0.111	0.129	0.148	0.172	0.197	0.228	0.266	0.308	0.355	0.413
x2 = 0.2068	0.162	0.187	0.215	0.25	0.287	0.332	0.387	0.448	0.517	0.602
x2 = 0.2812	0.211	0.244	0.286	0.338	0.39	0.45	0.52	0.604	0.697	0.809
x2 = 0.3698	0.271	0.315	0.371	0.441	0.51	0.589	0.685	0.794	0.922	1.08
x2 = 0.4772	0.308	0.371	0.437	0.522	0.618	0.722	0.846	0.987	1.14	1.33
x2 = 0.6101	0.364	0.432	0.522	0.614	0.718	0.835	0.975	1.13	1.33	1.56
x2 = 0.7788	0.383	0.459	0.559	0.658	0.77	0.902	1.06	1.25	1.47	1.73
